Data on 22 molecules can be found in patent US20260174786A1, “A NITROGEN-CONTAINING SPIROCYCLIC COMPOUND, PHARMACEUTICAL COMPOSITION AND USE THEREOF” (Prime Gene Therapeutics Co., Ltd., priority 2022, published 2026).

The test deals with T1, hTRPV3 (Homo sapiens, UniProt Q8NET8).
T1 construct: expressed in transfected cells; host or cells: HEK-293
T1 sequence (Q8NET8 1-790): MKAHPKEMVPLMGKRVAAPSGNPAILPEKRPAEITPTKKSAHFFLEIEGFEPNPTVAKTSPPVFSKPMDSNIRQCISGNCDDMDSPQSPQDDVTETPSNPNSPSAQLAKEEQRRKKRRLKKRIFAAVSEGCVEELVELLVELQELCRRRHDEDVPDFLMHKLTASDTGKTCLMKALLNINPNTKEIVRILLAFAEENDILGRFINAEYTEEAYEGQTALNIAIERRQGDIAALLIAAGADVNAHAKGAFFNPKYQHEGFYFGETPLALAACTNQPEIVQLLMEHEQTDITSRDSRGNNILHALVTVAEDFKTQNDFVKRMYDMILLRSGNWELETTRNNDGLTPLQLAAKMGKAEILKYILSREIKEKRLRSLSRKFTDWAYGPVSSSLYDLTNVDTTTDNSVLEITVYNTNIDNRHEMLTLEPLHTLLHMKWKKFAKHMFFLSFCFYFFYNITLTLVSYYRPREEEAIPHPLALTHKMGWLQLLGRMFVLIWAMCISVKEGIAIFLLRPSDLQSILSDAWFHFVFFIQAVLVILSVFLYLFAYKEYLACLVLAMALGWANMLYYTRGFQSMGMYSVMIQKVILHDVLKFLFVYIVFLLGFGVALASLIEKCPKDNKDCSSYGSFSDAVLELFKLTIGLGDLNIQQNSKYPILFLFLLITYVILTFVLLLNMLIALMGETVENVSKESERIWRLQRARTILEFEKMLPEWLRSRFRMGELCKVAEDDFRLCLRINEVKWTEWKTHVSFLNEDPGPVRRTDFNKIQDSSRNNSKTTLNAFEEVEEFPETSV
The test can be described thus: Whole cell patch clamp inhibition rate test on HEK-293 cells instantaneously expressing TRPV3. The format is cell-based. The following applies: HEK293; hTRPV3, single concentration 0.3 μM. How it is done:
In this study, HEK-293 cells instantaneously expressing TRPV3 were used for experimental detection.
The operation steps are as follows:
The cells were cultured in DMEM medium containing 10% fetal bovine serum at a temperature of 37° C. and a carbon dioxide concentration of 5%.
Day 1: Cells were inoculated into a 6-well plate with 5×10^5 cells per well.
Day 2: Transfection was performed using Lipofectamine 3000 transfection reagent, with a plasmid to transfection reagent ratio of 1 μg: 2 μL. The total amount of plasmid used per well was 3 μg. Specifically, two sterile centrifuge tubes were taken and 100 μL Opti-MEM was added to each tube. 6 μL Lipofectamine 3000 was added to one tube and mixed well; and 3 μg plasmid was added to another tube and mixed well, and then 6 μL P3000 was added and mixed well; Subsequently, the diluted plasmid DNA was added to diluted Lipofectamine 3000 and incubated at room temperature for 10-15 min. DNA liposome complex was dropped into the cells, shaked gently and mixed well, and then cultured in an incubator. The liquid was changed after 4 to 6 h.
Day 3: The cells were digested and seeded into 24 well plates with pre-placed cover slides, with 8×10^3 cells per well.
Day 4: Patch clamp testing was performed.
The voltage stimulation protocol for recording TRPV3 current using whole cell patch clamp is as follows: after forming a whole cell seal, a cell membrane voltage clamp was set at −80 mV. Firstly, a membrane potential was recorded at 0 mV, and then a voltage was command to start from −100 mV, to depolarize in the form of Ramp to 100 mV within 100 ms, and finally restore to 0 mV. Data collection was repeated every 5 seconds to observe the inhibitory effect of pharmaceutical on peak current. Experimental data was collected by EPC 10 amplifier (HEKA) and stored in PatchMaster (HEKA) software.
A microelectrode puller was used to pull the capillary glass tube into a recording electrode. The electrode filled with intracellular fluid was inserted into a microelectrode holder, and a microelectrode manipulator was operated under an inverted microscope to immerse the electrode in extracellular fluid and an electrode resistance (Rpip) was recorded. The electrode was brought into contact with the cell surface and a negative pressure suction was applied to form a high resistance seal (GΩ). At this point, a fast capacitance compensation was performed, and negative pressure was continued to apply in order to break the cell membrane, so that a whole cell recording mode was formed. Then, a slow capacitance compensation was performed and experimental parameters such as film capacitance (Cm) and series resistance (Rs) were recorded. No leakage compensation was provided.
When the TRPV3 current recorded by the whole cell had stabilized, administration was started. Each pharmaceutical concentration acted for 5 minutes (or until the current stabilized) before detecting the next concentration. A plurality of concentrations was tested for each test compound. A cover glass covered with cells was placed in a recording bath under an inverted microscope. A blank control extracellular solution and a working fluid for the compound to be tested sequentially flowed through the recording bath from low concentration to high concentration using gravity perfusion to act on the cells. Liquid exchange was performed using a peristaltic pump during recording. The current detected by each cell in the extracellular fluid without the compound served as its own control group. Each concentration was independently tested twice using at least two cells. All electrophysiological tests were conducted at room temperature.

A value given as a limit tells only on which side of the number the result lay.

As for `O=C(c1ccc(F)cn1)N1CCC2(CC1)CC(O)c1cc(-c3ccccc3C3CC3)ccc12` (stereo not shown) [Example 3, (5-(2-cyclopropylphenyl)-3-hydroxy-2,3-dihydrospiro[indene-1,4′-piperidine]-1′-yl)(5-fluoropyridin-2-yl) ketone], the inhibition at 0.3 µM lay in the range of 25 to 50%.

On to `CC(C)c1ccccc1-c1ccc2c(c1)[C@H](O)C[C@@]21CCN(C(=O)c2ccc(F)cn2)C1` [Example 25], for which the inhibition at 0.3 µM was in the range of 70 to 100%.

`CC(C)c1ccccc1-c1ccc2c(c1)C(O)CC21CCN(C(=O)c2ccc(F)cn2)C1` (stereo not shown) [Example 16, (5-fluoropyridin-2-yl)(3-hydroxy-5-(2-isopropylphenyl)-2,3-dihydrospiro[indene-1,3′-pyrrolidine]-1′-yl) ketone] came in with an inhibition at 0.3 µM of 70 to 100%.

As for `COc1cnc(C(=O)N2CCC3(CC(O)c4cc(-c5ccccc5C(C)C)ccc43)C2)cn1` (stereo not shown) [Example 63, (3-hydroxy-5-(2-isopropylphenyl)-2,3-dihydrospiro[indene-1,3′-pyrrolidine]-1′-yl)(5-methoxypyrazin-2-yl) ketone], the inhibition at 0.3 µM lay in the range of 70 to 100%.

`O=C(c1ccc(F)cn1)N1CCC2(C1)CC(O)(C(F)(F)F)c1cc(-c3ccccc3C3CC3)ccc12` (stereo not shown) [Example 7, (5-(2-cyclopropylphenyl)-3-hydroxy-3-(trifluoromethyl)-2,3-dihydrospiro[indene-1,3′-pyrrolidine]-1′-yl)(5-fluoropyridin-2-yl) ketone] returned an inhibition at 0.3 µM of less than 25%.

In turn, `CC(C)c1ccccc1-c1ccc2c(c1)C(O)CC21CCN(S(=O)(=O)c2ccc(Cl)cn2)C1` (stereo not shown) [Example 135, 1′-((5-chloropyridin-2-yl)sulfonyl)-5-(2-isopropylphenyl)-2,3-dihydrospiro[indene-1,3′-pyrrolidine]-3-ol] gave an inhibition at 0.3 µM of less than 25%.

In turn, `CC(C)c1ccccc1-c1ccc2c(c1)[C@H](O)C[C@@]21CCN(C(=O)c2cccc(C3CC3)n2)C1` [Example 41, (6-cyclopropylpyridin-2-yl)((1S,3R)-3-hydroxy-5-(2-isopropylphenyl)-2,3-dihydrospiro[indene-1,3′-pyrrolidine]-1′-yl)ketone] had an inhibition at 0.3 µM of 70 to 100%.

In turn, `CC(C)c1ccccc1-c1ccc2c(c1)C(O)CC21CCN(C(=O)c2ncccn2)C1` (stereo not shown) [Example 66, (3-hydroxy-5-(2-isopropylphenyl)-2,3-dihydrospiro[indene-1,3′-pyrrolidine]-1′-yl)(pyrimidin-2-yl)ketone] yielded an inhibition at 0.3 µM of 25 to 50%.

The molecule `O=C(c1cccc(C2CC2)n1)N1CC[C@@]2(C[C@@H](O)c3cc(-c4ccccc4C4CC4)ccc32)C1` [Example 37, ((1S,3R)-5-(2-cyclopropylphenyl)-3-hydroxy-2,3-dihydrospiro[indene-1,3′-pyrrolidine]-1′-yl)(6-cyclopropylpyridin-2-yl) ketone] displayed an inhibition at 0.3 µM of 70 to 100%.

Molecule `CC(C)c1ccccc1-c1ccc2c(c1)C(O)CC21CCN(C(=O)c2ccc(F)cc2)C1` (stereo not shown) [Example 61, (4-fluorophenyl)(3-hydroxy-5-(2-isopropylphenyl)-2,3-dihydrospiro[indene-1,3′-pyrrolidine]-1′-yl)ketone] came in with an inhibition at 0.3 µM of 70 to 100%.

Take `[2H]C1(O)CC2(CCN(C(=O)c3ccc(F)cn3)C2)c2ccc(-c3ccccc3C3CC3)cc21` (stereo not shown) [Example 12, (5-(2-cyclopropylphenyl)-3-hydroxy-2,3-dihydrospiro[indene-1,3′-pyrrolidine]-1′-yl-3-d)(5-fluoropyridin-2-yl) ketone]: the inhibition at 0.3 µM was in the range of 70 to 100%.

As to `CC(C)c1ccccc1-c1ccc2c(c1)[C@@H](O)C[C@]21CCN(C(=O)c2cccc(C3CC3)n2)C1` [Example 44, (6-cyclopropylpyridin-2-yl)((1R,3S)-3-hydroxy-5-(2-isopropylphenyl)-2,3-dihydrospiro[indene-1,3′-pyrrolidine]-1′-yl)ketone], the inhibition at 0.3 µM is less than 25%.

`O=C(c1ccc(F)cn1)N1CC[C@]2(C[C@H](O)c3cc(-c4ccccc4C4CC4)ccc32)C1` [Example 23, ((1R,3S)-5-(2-cyclopropylphenyl)-3-hydroxy-2,3-dihydrospiro[indene-1,3′-pyrrolidine]-1′-yl)(5-fluoropyridin-2-yl)ketone]: the inhibition at 0.3 µM was less than 25%.

In turn, `O=C(c1ccc(F)cn1)N1CCC2(CC(O)c3cc(-c4ccccc4Cl)ccc32)C1` (stereo not shown) [Example 81, (5-(2-chlorophenyl)-3-hydroxy-2,3-dihydrospiro[indene-1,3′-pyrrolidine]-1′-yl)(5-fluoropyridin-2-yl) ketone] returned an inhibition at 0.3 µM of 50 to 70%.

As for `O=C(c1ccc(F)cn1)N1CCC2(CC(O)c3cc(-c4cccc5ccccc45)ccc32)C1` (stereo not shown) [Example 92, (5-fluoropyridin-2-yl)(3-hydroxy-5-(naphthalen-1-yl)-2,3-dihydrospiro[indene-1,3′-pyrrolidine]-1′-yl) ketone], the inhibition at 0.3 µM was in the range of 70 to 100%.

As for `CC(C)c1ccccc1-c1ccc2c(c1)[C@@H](O)C[C@@]21CCN(C(=O)c2csc(Cl)n2)C1` [Example 35, (2-chlorothiazol-4-yl)((1S,3S)-3-hydroxy-5-(2-isopropylphenyl)-2,3-dihydrospiro[indene-1,3′-pyrrolidine]-1′-yl)ketone], the inhibition at 0.3 µM was less than 25%.

Consider `O=C(c1cccc(C2CC2)n1)N1CC[C@@]2(C[C@H](O)c3cc(-c4ccccc4C4CC4)ccc32)C1` [Example 39, ((1S,3S)-5-(2-cyclopropylphenyl)-3-hydroxy-2,3-dihydrospiro[indene-1,3′-pyrrolidine]-1′-yl)(6-cyclopropylpyridin-2-yl) ketone], for which the inhibition at 0.3 µM was less than 25%.

With `CC(C)c1ccccc1-c1ccc2c(c1)[C@@H](O)C[C@]21CCN(C(=O)c2csc(Cl)n2)C1` [Example 36, (2-chlorothiazol-4-yl)((1R,3S)-3-hydroxy-5-(2-isopropylphenyl)-2,3-dihydrospiro[indene-1,3′-pyrrolidine]-1′-yl)ketone], the inhibition at 0.3 µM is less than 25%.

`CCc1nccnc1Oc1ccc2c(c1)C(O)CC21CCN(C(=O)c2ccc(F)cn2)C1` (stereo not shown) [Example 105, (5-((3-ethylpyrazin-2-yl)oxy)-3-hydroxy-2,3-dihydrospiro[indene-1,3′-pyrrolidine]-1′-yl)(5-fluoropyridin-2-yl] ketone] displayed an inhibition at 0.3 µM of less than 25%.

Consider `CC(C)c1ccccc1-c1ccc2c(c1)[C@@H](O)C[C@]21CCN(C(=O)c2ccc(F)cn2)C1` [Example 27], for which the inhibition at 0.3 µM is less than 25%.

`CC(C)(C#N)c1ccccc1-c1ccc2c(c1)C(O)CC21CCN(C(=O)c2ccc(F)cn2)C1` (stereo not shown) [Example 164, 2-(2-(1′-(5-fluoropyridoyl)-3-hydroxy-2,3-dihydrospiro[indene-1,3′-pyrrolidine]-5-yl)phenyl)-2-methyl propionitrile] gave an inhibition at 0.3 µM of 50 to 70%.

`Cc1cccc(C(=O)N2CCC3(CC(O)c4cc(-c5ccccc5C5CC5)ccc43)C2)n1` (stereo not shown) [Example 53, (5-(2-cyclopropylphenyl)-3-hydroxy-2,3-dihydrospiro[indene-1,3′-pyrrolidine]-1′-yl)(6-methylpyridin-2-yl)ketone] showed an inhibition at 0.3 µM of 70 to 100%.
